Source: paper PMC2493416 (Anesthesia and analgesia, 2008)

Legend:
[1] = target: N-methyl-D-aspartate receptor (NMDAR) NR1/NR2B (Homo sapiens, UniProt Q05586+Q13224); experiment: two-electrode voltage clamp in oocytes, inhibition concentration-response; assay type: cell-based
[2] = target: γ-aminobutyric acid type A receptor (GABAAR) α1β2γ2s (Homo sapiens, UniProt P14867+P47870); experiment: whole-cell patch clamp, shift of GABA EC50; assay type: cell-based
Sequence of γ-aminobutyric acid type A receptor (GABAAR) α1β2γ2s (P14867 28-456): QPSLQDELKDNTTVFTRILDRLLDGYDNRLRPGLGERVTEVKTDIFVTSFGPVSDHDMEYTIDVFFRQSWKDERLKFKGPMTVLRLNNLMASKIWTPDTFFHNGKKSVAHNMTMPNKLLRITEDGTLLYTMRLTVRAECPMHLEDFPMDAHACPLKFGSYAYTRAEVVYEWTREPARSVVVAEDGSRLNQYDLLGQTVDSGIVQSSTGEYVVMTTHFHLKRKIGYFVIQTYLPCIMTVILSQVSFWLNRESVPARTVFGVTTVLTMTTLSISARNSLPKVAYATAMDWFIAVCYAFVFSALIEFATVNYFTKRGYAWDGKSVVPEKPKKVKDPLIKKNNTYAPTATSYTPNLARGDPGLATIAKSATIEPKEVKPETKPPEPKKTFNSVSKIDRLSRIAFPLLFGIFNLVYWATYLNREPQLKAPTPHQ
Sequence of γ-aminobutyric acid type A receptor (GABAAR) α1β2γ2s (P47870 26-512): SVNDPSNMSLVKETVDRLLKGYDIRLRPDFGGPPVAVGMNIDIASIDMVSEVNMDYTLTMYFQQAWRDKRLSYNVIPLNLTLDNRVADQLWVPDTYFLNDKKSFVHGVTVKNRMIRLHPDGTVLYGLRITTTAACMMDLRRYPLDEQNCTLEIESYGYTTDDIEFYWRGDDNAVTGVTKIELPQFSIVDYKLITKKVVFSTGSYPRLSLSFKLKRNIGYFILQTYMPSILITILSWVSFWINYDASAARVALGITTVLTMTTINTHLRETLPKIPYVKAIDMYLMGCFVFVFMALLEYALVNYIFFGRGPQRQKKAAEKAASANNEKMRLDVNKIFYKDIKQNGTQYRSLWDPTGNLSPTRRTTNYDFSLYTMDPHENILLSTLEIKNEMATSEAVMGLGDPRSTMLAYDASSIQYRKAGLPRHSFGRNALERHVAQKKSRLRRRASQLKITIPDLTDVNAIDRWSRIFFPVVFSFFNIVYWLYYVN
Sequence of γ-aminobutyric acid type A receptor (GABAAR) α1β2γ2s (P18507 40-475 partner): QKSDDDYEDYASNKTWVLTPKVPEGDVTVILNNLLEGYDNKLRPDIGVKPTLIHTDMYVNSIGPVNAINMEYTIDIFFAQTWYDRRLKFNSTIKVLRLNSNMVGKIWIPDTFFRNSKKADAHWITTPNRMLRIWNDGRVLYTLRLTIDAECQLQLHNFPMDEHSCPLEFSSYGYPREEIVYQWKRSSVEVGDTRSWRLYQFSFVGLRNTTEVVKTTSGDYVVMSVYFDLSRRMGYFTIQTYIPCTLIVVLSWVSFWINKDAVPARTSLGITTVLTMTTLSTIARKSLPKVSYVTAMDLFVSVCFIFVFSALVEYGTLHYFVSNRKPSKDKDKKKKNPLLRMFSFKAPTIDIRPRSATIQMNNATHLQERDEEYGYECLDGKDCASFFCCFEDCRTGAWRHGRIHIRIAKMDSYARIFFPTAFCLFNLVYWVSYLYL

Sequence of N-methyl-D-aspartate receptor (NMDAR) NR1/NR2B (Q13224 27-1484, other chains not shown): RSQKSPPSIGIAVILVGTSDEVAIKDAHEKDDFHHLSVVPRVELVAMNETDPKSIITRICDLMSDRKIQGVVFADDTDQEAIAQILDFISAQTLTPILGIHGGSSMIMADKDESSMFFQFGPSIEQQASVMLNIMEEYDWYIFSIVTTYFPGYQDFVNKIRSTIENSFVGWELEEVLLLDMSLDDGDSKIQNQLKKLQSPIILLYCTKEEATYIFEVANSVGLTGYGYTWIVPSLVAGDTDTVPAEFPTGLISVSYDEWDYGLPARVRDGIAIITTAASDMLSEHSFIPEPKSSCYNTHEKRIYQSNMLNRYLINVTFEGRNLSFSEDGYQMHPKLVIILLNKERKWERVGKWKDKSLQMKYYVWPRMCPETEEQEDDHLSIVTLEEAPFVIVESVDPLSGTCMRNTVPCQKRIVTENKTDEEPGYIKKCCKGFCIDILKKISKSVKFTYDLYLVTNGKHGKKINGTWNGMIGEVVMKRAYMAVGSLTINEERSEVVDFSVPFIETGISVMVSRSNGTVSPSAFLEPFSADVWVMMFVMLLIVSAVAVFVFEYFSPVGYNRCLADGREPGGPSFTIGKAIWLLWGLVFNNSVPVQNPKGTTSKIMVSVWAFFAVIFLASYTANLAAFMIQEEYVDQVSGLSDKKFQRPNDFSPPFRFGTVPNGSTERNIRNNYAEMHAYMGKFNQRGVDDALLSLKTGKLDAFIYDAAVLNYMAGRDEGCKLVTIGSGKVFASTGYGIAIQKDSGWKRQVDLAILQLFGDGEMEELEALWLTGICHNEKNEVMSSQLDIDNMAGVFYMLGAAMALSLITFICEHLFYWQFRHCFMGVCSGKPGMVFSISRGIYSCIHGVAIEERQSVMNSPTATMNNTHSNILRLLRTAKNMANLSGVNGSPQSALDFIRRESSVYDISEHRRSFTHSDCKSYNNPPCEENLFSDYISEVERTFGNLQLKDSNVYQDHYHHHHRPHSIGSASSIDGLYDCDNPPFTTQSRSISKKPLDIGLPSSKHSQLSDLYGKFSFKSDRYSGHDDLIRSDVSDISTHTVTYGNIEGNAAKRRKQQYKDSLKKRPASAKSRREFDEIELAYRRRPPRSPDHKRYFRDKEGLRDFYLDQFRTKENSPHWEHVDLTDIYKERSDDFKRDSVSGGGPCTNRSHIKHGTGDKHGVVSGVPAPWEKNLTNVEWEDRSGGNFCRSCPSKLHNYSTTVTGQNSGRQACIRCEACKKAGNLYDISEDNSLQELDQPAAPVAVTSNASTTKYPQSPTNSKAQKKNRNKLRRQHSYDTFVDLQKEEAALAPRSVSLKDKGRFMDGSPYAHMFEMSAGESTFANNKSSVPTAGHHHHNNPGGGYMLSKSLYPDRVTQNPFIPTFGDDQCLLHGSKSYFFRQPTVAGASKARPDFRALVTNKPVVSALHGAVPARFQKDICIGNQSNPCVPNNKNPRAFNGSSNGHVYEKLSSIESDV

Compound	IC50 [1]	whole-cell patch clamp, shift of GABA EC50 [2]
FC(F)OC(Cl)C(F)(F)F (stereo not drawn) [ISO, isoflurane]	2.4 mM	
c1ccccc1 [benzene]	0.34 ± 0.04 mM	
ClC(Cl)Cl [chloroform]		Both halothane and chloroform decreased the GABA EC50 in a dose dependent and saturable manner
